The text below walks through data of patent publication US6352980B1, “Estrenes for inducting hypothalamic effects” (Pherin Pharmaceuticals, Inc., priority 1991, dated 2002).

SMILES strings stand for the structures. Entries after “also recorded” stand apart in the source; their conditions may differ.

The test system of experiment [1] is human vomeronasal organ (VNO). Briefly: Local electrical potential of the VNO on localized gaseous stimulation (Example 52). In kind it is in vivo. The conditions noted are these: for VNO response, males versus females (sexual dimorphism): FIG. 2B; for VNO response: male subjects, about 25 pg to the nasal cavity, response measured in mV×s, FIG. 2A. Here is the method:
(§1) A non-invasive method has been employed to record local electrical potentials from the human vomeronasal organ (VNO) and from the olfactory epithelium (OE). Localized gaseous stimulation was applied to both nasal structures at different instances using specially designed catheter/electrodes connected to a multichannel drug delivery system.
(§2) The study was performed on ten clinically normal (screened) volunteers—2 males and 8 females, ranging in age from 18 to 85 years. The studies were conducted without general or local anesthetics.
(§3) The catheter/electrodes were designed to deliver a localized stimulus and simultaneously record the response. In the case of VNO recording, the right nasal fosa of the subject was explored using a nasoscope (nasal specula) and the vomeronasal opening was localized close to the intersection of the anterior edge of the vomer and the nasal floor. The catheter/electrode was gently driven through the VNO-opening and the electrode tip placed in the organ's lumen at 1 to 3 mm from the opening. The nasoscope was then removed. In the case of the OE, recording the procedure was similar except the positioning of the catheter/electrode was gently placed deep in the lateral part of the medial nasal duct, reaching the olfactory mucosa.
Localized gaseous stimulation was done through the catheter/electrode. A constant stream of clean, nonodorous, humidified air at room temperature was continuously passed through a channel of the stimulating system. The stimulating ligand substances were diluted in propylene glycol, mixed with the humidified air, and puffed for from 1 to 2 seconds through the catheter/electrode. It is estimated that this administration provides about 25 pg of steroid-ligand to the nasal cavity.
(§4) The response is measured in millivolt-seconds (mV×s).

For experiment [2], the system named is olfactory epithelium (OE). Briefly: Local electrical potential of the olfactory epithelium on localized gaseous stimulation (Example 52). Type of experiment: in vivo, human. The conditions noted are these: both males and females; compared to clove; FIG. 2C. On the procedure:
as §1, §2, §3
Localized gaseous stimulation was done through the catheter/electrode. […]
as §4

The test system of experiment [3] is VNO. Put plainly: Electro-vomeronasogram (EVG) (Example 57). In kind it is in vivo, human. The conditions noted are these: male subjects (ages 20 to 38); 100 fmoles; 1 second pulses; FIG. 6A. On the procedure:
The following electrophysiological studies were performed in 60 clinically normal human volunteers of both sexes (30 male and 30 female) whose ages ranged from 20 to 45 years. No anesthetics were used, and female subjects were excluded if pregnant.
The stimulation and recording system consists of a “multifunctional miniprobe” described elsewhere (Monti-Bloch, L. and Grosser, B. l. (1991) “Effect of putative pheromones on the electrical activity of the human vomeronasal organ and olfactory epithelium,” J. Steroid Biochem. Molec. Biol. 39:573-582.). The recording electrode is a 0.3 mm silver ball attached to a small (0.1 mm) silver wire insulated with Teflon© the surface of the electrode is first treated to produce a silver chloride interface, and is then covered with gelatin It is positioned within a small caliber Teflon© catheter (dia=5 mm) such that the tip of the electrode protrudes approximately 2 mm. The Teflon© catheter is 10 cm in length and constitutes the terminal extension for a multichannel delivery system which delivers a continuous air stream carrying discreet pulses of chemosensory stimuli. The air stream first passes into a small chamber and is bubbled through a solution containing either a vomeropherin or an olfactant in a diluent or the diluent alone. A solenoid is used to rapidly redirect the air stream from the chamber to a route which bypasses the chamber. This creates a discreet pulse of stimulant in the air stream. A second, outer Teflon® tube with a diameter of 2 mm surrounds the catheter-electrode assemblage, and its central end is connected to an aspirator that provides continuous suction of 3 ml/s. This concentric arrangement of the outer suction tube allows the emitted chemosensory stimuli to be localized to an area we call a “minifield” (approx. dia=1 mm), and it avoids diffusion of substances either to the area outside the intended stimulation site or into the respiratory system. The entire stimulating and recording assemblage may be positioned either on the neurosensory epithelium within the VNO, or on the surface of the olfactory or respiratory epithelium.
Electro-vomeronasogram (EVG): Recordings are carried out in a quiet room with the subject supine; the multi-functional miniprobe is initially stabilized within the nasal cavity using a nasal retractor placed in the vestibule. Reference and ground electrodes consist of silver discs (8 mm), both of which are positioned on the glabella.
The entrance to the VNO, or vomeronasal pit, is identified by first dilating the nasal aperture and vestibule. A 6× magnifying binocular loupe with halogen illumination is then used to introduce the tip of the Teflon® catheter and recording electrode assemblage into the VNO opening where it is stabilized at an approximate depth of 1 mm within the vomeronasal passage. Optimal placement of the recording electrode is signaled after testing for an adequate depolarization in response to a test substance.
Electrical signals from the recording electrode are fed to a DC amplifier after which they are digitized, computer monitored, and stored. The peak-to-peak amplitude of the signals is measured, and the area under the depolarization wave is integrated, while continuously monitoring the signal both on the computer screen and on a digital oscilloscope. Artifacts produced by respiratory movements are deleted by training the subjects to practice mouth breathing with velopharyngeal closure.
Chemosensory Stimulants: Olfactory test substances are cineole, and 1-carvone; vomeropherins are A, B, C, E and F. (Vomeropherins were supplied by Pherin Corporation, Menlo Park, Calif.), Samples of vomeropherins In. concentration of 25-800 fmoles are delivered in the continuous air stream for durations from 300 milliseconds to 1 second. Usually, intervals of 3 to 5 minutes separated each series of short test pulses. […]

Experiment [4] deals with VNO. Briefly: Electrodermal activity (EDA) on vomeropherin stimulation of the VNO. The conditions noted are these: male subjects, n=30; p<0.01; FIG. 6C. Type of experiment: in vivo, human. On the procedure: (§5) Cortical evoked activity was induced by VNO stimulation with vomeropherins, and olfactory stimulation with odorants delivered in 300 ms air pulses. It was recorded using standard electroencephalographic (EEG) electrodes placed at positions Cz-A1 and Tz-A1 of the international […] system; the ground electrode was placed on the mastoid process. Electrodermal activity (EDA) was recorded using standard 8 mm silver electrodes in contact with palmar skin of the medial and ring fingers, respeCtively, through a conductive gel interface. Skin temperature (ST) was recorded by a small (1.0 mm) thermistor probe placed in the right ear lobe. Peripheral arterial pulse (PAP) was monitored with a plethysmograph attached to the tip of the index finger. Respiratory frequency (RF) was measured with an adjustable strain gauge placed around the lower thorax. All electrical signals were DC amplified, digitized (MP-100, Biopac Systems) and continuously monitored utilizing a computer.
(§6) Statistical Analysis: EVGs or EOGS, peak-to-peak changes and frequency changes of other parameters were measured and statistically analyzed. The significance of the results was determined by either using paired t-tests or analysis of variance (ANOVA).
Reflex Effects of Vomeropherins: Studies were conducted to determine the central nervous system (CNS) reflex responses to vomeropherin stimulation of the VNO. The sexually dimorphic local responses induced by vomeropherins (FIGS. 6A and B) were mirrored in the autonomic response of male & female subjects. […] In female subjects.

In experiment [5] the test system is VNO. Put plainly: Skin temperature (ST) on vomeropherin stimulation of the VNO. Type of experiment: in vivo, human. The conditions noted are these: 30 male subjects; p<0.01; FIG. 6G. On the procedure: as §5, §6
In female subjects vomeropherins produced changes in EDA and ST with a greater standard deviation than in males.

For experiment [6], the system named is VNO. Put plainly: Cortical activity (EEG) on VNO stimulation with vomeropherins. Type of experiment: in vivo, human. The conditions noted are these: males; 200 fmoles; air pulses 300 ms to 1 sec; FIG. 6E. On the procedure:
as §5, §6
[…] […] Synchronization of the EEG was sustained for 1.5 to 2.7 minutes after application of a single pulse of active substance.

Experiment [7] deals with VNO. Briefly: Comparison of change in receptor potential induced by two Estrene steroids (Example 55). Type of experiment: in vivo, human. The conditions noted are these: 60 picograms; a subject; FIG. 5. Here is the method:
60 picograms of each steroid and of a propylene glycol control were administered to a subject as described in Example 21.

Experiment [8] relates to VNO. The conditions noted are these: 2% lidocaine applied to the respiratory epithelium of the nasal septum; cited from earlier work.

Consider `C[C@]12CC[C@@H]3c4ccc(O)cc4CC[C@H]3[C@@H]1C[C@@H](O)[C@@H]2O` [1,3,5(10)-Estratrien-3,16α,17β-triol, reference compound], for which, in experiment [1], the “VNO response, males versus females (sexual dimorphism)” value is recorded as “approximately four times as strong in males as it is in females” and the VNO response result is listed as “strong VNO response”. Moreover, in experiment [2], the OE response result is listed as “low compared to a strong odorant such as clove”.

Turning to `C[C@@]12C=CC[C@H]1[C@@H]1CCc3cc(O)ccc3[C@H]1CC2` [C, 1,3,5(10),16-Estratetraen-3-ol], in experiment [1], the “VNO response, males versus females (sexual dimorphism)” value was “approximately four times as strong in males as it is in females” and the VNO response entry is listed as “significantly stronger VNO response in males than do the other compounds tested”. Moreover, the OE response result in experiment [2] is given as “low compared to a strong odorant such as clove”. In the experiment on VNO [3], the “EVG average response (mean)” value was determined as 6.4 mV. Also, the “skin resistance (electrodermal activity, EDA)” value in the experiment on VNO [4] was “decreased skin resistance”. For the same molecule, in the experiment with VNO [5], the “skin temperature (ST)” value was “significant increase in skin temperature”. In addition, in the experiment with VNO [6], the alpha cortical activity entry is “significantly increased alpha cortical activity”.

Take `COc1ccc2c(c1)CC[C@@H]1[C@@H]2CC[C@]2(C)C=CC[C@@H]12` [D, 3-Methoxy-Estra-1,3,5(10)16-tetraene]: in the experiment with VNO [7], the “change in receptor potential” value is reported as “greater change in receptor potential than did 1,3,5(10),16-Estratetraen-3-yl acetate”. The “EVG average response (mean)” value in the experiment with VNO [3] was 15.1 mV. Further, in the experiment with VNO [5], the “skin temperature (ST)” value was “significant temperature decrease”. Besides, the alpha cortical activity entry in the experiment on VNO [6] is “significantly increased alpha cortical activity; also recorded: strongest effect”.

For `CCN(CC)CC(=O)Nc1c(C)cccc1C` [lidocaine], the “effect of local anesthetic on the EVG” value in the experiment with VNO [8] was “neither blocks nor diminishes the EVG”.
